Measurements published in US20160039825A1 (BIOGEN MA INC., priority 2013, published 2016).
Where a name gives a salt, the structure may show the parent alone.

target: T1, Human ATX protein (Homo sapiens, UniProt Q13822); assay: Autotaxin (ATX) assay, FRET with FS-3 substrate; type: biochemical; conditions: upper bound bins (no greater than 100, 250 or 500 nM); FS-3 2 μM, ATX 1.0 μg/mL
T1 construct: made in house
Outline: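 In-house human ATX (1.0 μg/mL final) was preincubated with compound for 30 min at room temperature in Tris buffer pH 7.4 with NaCl, KCl, CaCl2, MgCl2 and 1 mg/mL fatty acid-free BSA. FS-3 (2 μM final) was added and the plate shaken 2 h at room temperature in the dark. Fluorescence was read at ex 485/em 538 nm.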

Row | SMILES | IC50 [nM]
1 | NC1CCN(C(=O)c2cc3n(n2)CCN(C(=O)OCc2cc(C(F)(F)F)cc(C(F)(F)F)c2)C3)CC1 [Example 422, 3,5-bis(trifluoromethyl)benzyl 2-(4-aminopiperidine-1-carbonyl)-6,7-dihydropyrazolo[1,5-a]pyrazine-5(4H)-carboxylate hydrochloride] | ≤ 100
2 | O=C(O)C1CC2CCCC(C1)N2C(=O)c1cc2n(n1)CCN(C(=O)OCc1ccc(C(F)(F)F)cc1)C2 (centres unmarked) [Example 45, 9-(5-(((4-(Trifluoromethyl)benzyl)oxy)carbonyl)-4,5,6,7-tetrahydropyrazolo[1,5-a]pyrazine-2-carbonyl)-9-azabicyclo[3.3.1]nonane-3-carboxylic acid] | ≤ 250
3 | CC(CO)NC(=O)c1cc2n(n1)CCN(C(=O)OCc1cc(C(F)(F)F)cc(C(F)(F)F)c1)C2 (centres unmarked) [Example 472] | ≤ 100
4 | O=C(OCc1cc(C(F)(F)F)cc(C(F)(F)F)c1)N1CCCn2nc(N3CC4CCC(C3)N4)cc2C1 [Example 344] | ≤ 250
5 | O=C(O)C1CN(C(=O)OCc2cc(C(F)(F)F)cc(C(F)(F)F)c2)Cc2ccnn2C1 (centres unmarked) [Example 415] | ≤ 250
6 | CC(C)(C)OC(=O)N1CCC(c2cc3n(n2)CCN(C(=O)OCc2cc(C(F)(F)F)cc(C(F)(F)F)c2)C3)CC1 [Example 398, 3,5-bis(trifluoromethyl)benzyl 2-(1-(tert-butoxycarbonyl)piperidin-4-yl)-6,7-dihydropyrazolo[1,5-a]pyrazine-5(4H)-carboxylate] | ≤ 100
7 | O=C(OCc1cc(Cl)cc(C(F)(F)F)c1)N1CCCn2nc(C(=O)N3CCN4CCC[C@@H]4C3)cc2C1 [Example 214] | ≤ 100
8 | CNC1CCN(C(=O)c2cc3n(n2)CCCN(C(=O)OCc2cc(C(F)(F)F)cc(C(F)(F)F)c2)C3)C1 (centres unmarked) [Example 243] | ≤ 100
9 | CCOC(=O)c1cc2n(n1)CCN(C(=O)OCc1cc(C(F)(F)F)cc(C(F)(F)F)c1)C2 [Example 403] | ≤ 100
10 | O=C(OCc1cc(Cl)cc(C(F)(F)F)c1)N1CCn2c(nnc2C(F)(F)F)C1 [Example 135, 3-Chloro-5-(trifluoromethyl)benzyl 3-(trifluoromethyl)-5,6-dihydro-[1,2,4]triazolo[4,3-a]pyrazine-7(8H)-carboxylate] | ≤ 500
11 | O=C(CN1CCOCC1)c1cc2n(n1)CCCN(C(=O)OCc1cc(Cl)cc(C(F)(F)F)c1)C2 [Example 271] | ≤ 100
12 | O=C(OCc1cc(C(F)(F)F)cc(C(F)(F)F)c1)N1CCCn2nc(NC3CC4CCC(C3)N4)cc2C1 (centres unmarked) [Example 318] | ≤ 100
13 | O=C(OCc1cc(C(F)(F)F)cc(C(F)(F)F)c1)N1CCn2nc(C3=CCNCC3)cc2C1 [Example 516] | ≤ 100
14 | CN1CCC2C1CCN2c1cc2n(n1)CCCN(C(=O)OCc1cc(C(F)(F)F)cc(C(F)(F)F)c1)C2 (centres unmarked) [Example 360] | ≤ 100
15 | O=C(OCc1cc(C(F)(F)F)cc(C(F)(F)F)c1)N1CCCn2nc(C(=O)N3CCC(F)CC3)cc2C1 [Example 32, 3,5-Bis(trifluoromethyl)benzyl 2-(4-fluoropiperidine-1-carbonyl)-7,8-dihydro-4H-pyrazolo[1,5-a][1,4]diazepine-5(6H)-carboxylate] | ≤ 100
16 | O=C(OCc1cc(C(F)(F)F)cc(C(F)(F)F)c1)N1CCCn2nc(CN3CCCCC3)cc2C1 [Example 291] | ≤ 250
17 | CNC(=O)c1cc2n(n1)CCN(C(=O)OCc1cc(C(F)(F)F)cc(C(F)(F)F)c1)C2 [Example 482] | ≤ 100
18 | O=C(OCc1cc(C(F)(F)F)cc(C(F)(F)F)c1)N1CCCn2nc(N3CCCCC3=O)cc2C1 [Example 328, 3,5-bis(trifluoromethyl)benzyl 2-(2-oxopiperidin-1-yl)-7,8-dihydro-4H-pyrazolo[1,5-a][1,4]diazepine-5(6H)-carboxylate] | ≤ 100
19 | O=C(O)c1nn2c(c1Cl)CN(C(=O)OCc1cc(C(F)(F)F)cc(C(F)(F)F)c1)CC2 [Example 113, 5-(((3,5-Bis(trifluoromethyl)benzyl)oxy)carbonyl)-3-chloro-4,5,6,7-tetrahydropyrazolo[1,5-a]pyrazine-2-carboxylic acid] | ≤ 250
20 | CC(c1cc2n(n1)CCN(C(=O)OCc1cc(C(F)(F)F)cc(C(F)(F)F)c1)C2)N1CC2CCC(C1)N2C(=O)OC(C)(C)C (centres unmarked) [Example 449] | ≤ 100
21 | CCC(Nc1cc2n(n1)CCCN(C(=O)OCc1cc(C(F)(F)F)cc(C(F)(F)F)c1)C2)C(=O)O (centres unmarked) [Example 362] | ≤ 100

Results, then the compound that gave them:

Row | IC50 [nM] | SMILES
22 | ≤ 100 | CN1CCN(C(=O)c2cc3n(n2)CCCN(C(=O)OCc2cc(Cl)cc(C(F)(F)F)c2)C3)CC1C(F)(F)F (centres unmarked) [Example 186]
23 | ≤ 100 | O=C(OCc1cc(Cl)cc(C(F)(F)F)c1)N1CCCn2nc(C(=O)N3CCN4CCC[C@H]4C3)cc2C1 [Example 211]
24 | ≤ 100 | CCOC(=O)c1cc2n(n1)CCN(C(=O)OCc1cc(Cl)cc(C(F)(F)F)c1)C2 [Example 402, 5-(3-chloro-5-(trifluoromethyl)benzyl) 2-ethyl 6,7-dihydropyrazolo[1,5-a]pyrazine-2,5(4H)-dicarboxylate]
25 | ≤ 500 | CCOC(=O)c1cc2n(c1)CCCN(C(=O)OCc1cc(Cl)cc(Cl)c1)C2 [Example 99, 2-(3,5-Dichlorobenzyl) 8-ethyl 4,5-dihydro-1H-pyrrolo[1,2-a][1,4]diazepine-2,8(3H)-dicarboxylate]
26 | ≤ 100 | CC1(C)COCCN1CC(=O)c1cc2n(n1)CCCN(C(=O)OCc1cc(Cl)cc(C(F)(F)F)c1)C2 [Example 267]
27 | ≤ 100 | O=C(OCc1cc(C(F)(F)F)cc(C(F)(F)F)c1)N1CCCn2nc(C(=O)N3CCNCC34CCCC4)cc2C1 [Example 240]
28 | ≤ 100 | C[C@H]1CNC[C@H](C)N1C(=O)c1cc2n(n1)CCCN(C(=O)OCc1cc(Cl)cc(C(F)(F)F)c1)C2 [Example 160]
29 | ≤ 100 | O=C(OCc1cc(C(F)(F)F)cc(C(F)(F)F)c1)N1CCCn2nc(C(=O)N3CCOCC3)cc2C1 [Example 30, 3,5-Bis(trifluoromethyl)benzyl 2-(morpholine-4-carbonyl)-7,8-dihydro-4H-pyrazolo[1,5-a][1,4]diazepine-5(6H)-carboxylate]
30 | ≤ 100 | CC(=O)c1cc2n(n1)CCCN(C(=O)OCc1cc(C(F)(F)F)cc(C(F)(F)F)c1)C2 [Example 145, 3,5-Bis(trifluoromethyl)benzyl 2-acetyl-7,8-dihydro-4H-pyrazolo[1,5-a][1,4]diazepine-5(6H)-carboxylate]
31 | ≤ 100 | CCOC(=O)c1cc2n(n1)CCCN(C(=O)OCc1cc(C)cc(C(F)(F)F)c1)C2 [Example 105, 2-Ethyl 5-(3-methyl-5-(trifluoromethyl)benzyl) 7,8-dihydro-4H-pyrazolo[1,5-a][1,4]diazepine-2,5(6H)-dicarboxylate]
32 | ≤ 100 | O=C(OCc1cc(Cl)cc(C(F)(F)F)c1)N1CCCn2nc(C(=O)N3CCC4NCCC43)cc2C1 (centres unmarked) [Example 166]
33 | ≤ 100 | O=C(O)c1nn2c(c1Cl)CN(C(=O)OCc1cc(C(F)(F)F)cc(C(F)(F)F)c1)CCC2 [Example 110, 5-(((3,5-Bis(trifluoromethyl)benzyl)oxy)carbonyl)-3-chloro-5,6,7,8-tetrahydro-4H-pyrazolo[1,5-a][1,4]diazepine-2-carboxylic acid]
34 | ≤ 250 | NS(=O)(=O)c1cc2n(n1)CCCN(C(=O)OCc1cc(C(F)(F)F)cc(C(F)(F)F)c1)C2 [Example 301, 3,5-bis(trifluoromethyl)benzyl 2-sulfamoyl-7,8-dihydro-4H-pyrazolo[1,5-a][1,4]diazepine-5(6H)-carboxylate]
35 | ≤ 100 | O=C(OCc1cc(Cl)cc(C(F)(F)F)c1)N1CCn2nc(C(=O)N3CCNCC3)cc2C1 [Example 434]
36 | ≤ 250 | O=C(O)c1cc2n(n1)CCN(C(=O)OCc1cc(C(F)(F)F)cc(C(F)(F)F)c1)C2 [Example 419]
37 | ≤ 100 | CN1CCN(c2cc3n(n2)CCCN(C(=O)OCc2cc(C(F)(F)F)cc(C(F)(F)F)c2)C3)CC12CC2 [Example 353]
38 | ≤ 500 | O=C(O)c1cc2n(n1)CCCN(C(=O)OCc1cccc(C(F)(F)F)c1)C2 [Example 67, 5-(((3-(Trifluoromethyl)benzyl)oxy)carbonyl)-5,6,7,8-tetrahydro-4H-pyrazolo[1,5-a][1,4]diazepine-2-carboxylic acid]
39 | ≤ 100 | Cc1cc2n(n1)CCCN(C(=O)OCc1cc(C(F)(F)F)cc(C(F)(F)F)c1)C2 [Example 124, 3,5-Bis(trifluoromethyl)benzyl 2-methyl-7,8-dihydro-4H-pyrazolo[1,5-a][1,4]diazepine-5(6H)-carboxylate]
40 | ≤ 250 | CC(c1cc2n(n1)CCCN(C(=O)OCc1cc(Cl)cc(Cl)c1)C2)N1CCCCC1 (centres unmarked) [Example 446]
41 | ≤ 100 | CC(c1cc2n(n1)CCN(C(=O)OCc1cc(C(F)(F)F)cc(C(F)(F)F)c1)C2)N1CCCCC1 (centres unmarked) [Example 458]
42 | ≤ 100 | CN(C)C(=O)c1cc2n(n1)CCCN(C(=O)OCc1cc(Cl)cc(Cl)c1)C2 [Example 28, 3,5-Dichlorobenzyl 2-(dimethylcarbamoyl)-7,8-dihydro-4H-pyrazolo[1,5-a][1,4]diazepine-5(6H)-carboxylate]
43 | ≤ 100 | O=C(NC1CCOCC1)c1cc2n(n1)CCCN(C(=O)OCc1cc(C(F)(F)F)cc(C(F)(F)F)c1)C2 [Example 506]
44 | ≤ 100 | NCCCCNC(=O)c1cc2n(n1)CCCN(C(=O)OCc1cc(C(F)(F)F)cc(C(F)(F)F)c1)C2 [Example 182]
45 | ≤ 100 | CC(c1cc2n(n1)CCCN(C(=O)OCc1cc(C(F)(F)F)cc(C(F)(F)F)c1)C2)N1CCCCC1 (centres unmarked) [Example 148, 3,5-Bis(trifluoromethyl)benzyl 2-(1-(piperidin-1-yl)ethyl)-7,8-dihydro-4H-pyrazolo[1,5-a][1,4]diazepine-5(6H)-carboxylate]
46 | ≤ 100 | CC(C)(C)OC(=O)N1CCN(C(=O)c2cc3n(n2)CCN(C(=O)OCc2cc(Cl)cc(C(F)(F)F)c2)C3)CC1 [Example 471]
47 | ≤ 100 | O=C(O)C1CNCCN1C(=O)c1cc2n(n1)CCCN(C(=O)OCc1cc(C(F)(F)F)cc(C(F)(F)F)c1)C2 (centres unmarked) [Example 191]
